# In patent publication US4041111A, “Phosphonate monoesters and method of preparation” (Purdue Research Foundation, priority 1975, dated 1977):
# Columns and labels:
# [1] = target: T1, purified bovine intestinal phosphodiesterase (Bos taurus, UniProt P15396); test: Kinetic parameters of hydrolysis by purified phosphonate monoesterase/phosphodiesterase of calf intestinal mucosa (Table VI); assay type: biochemical, bovine (calf); conditions: 0.1 M Tris pH 8.0, 30° C., 4-nitrophenol measured continuously at 400 nm
# T1 sequence (P15396 1-874): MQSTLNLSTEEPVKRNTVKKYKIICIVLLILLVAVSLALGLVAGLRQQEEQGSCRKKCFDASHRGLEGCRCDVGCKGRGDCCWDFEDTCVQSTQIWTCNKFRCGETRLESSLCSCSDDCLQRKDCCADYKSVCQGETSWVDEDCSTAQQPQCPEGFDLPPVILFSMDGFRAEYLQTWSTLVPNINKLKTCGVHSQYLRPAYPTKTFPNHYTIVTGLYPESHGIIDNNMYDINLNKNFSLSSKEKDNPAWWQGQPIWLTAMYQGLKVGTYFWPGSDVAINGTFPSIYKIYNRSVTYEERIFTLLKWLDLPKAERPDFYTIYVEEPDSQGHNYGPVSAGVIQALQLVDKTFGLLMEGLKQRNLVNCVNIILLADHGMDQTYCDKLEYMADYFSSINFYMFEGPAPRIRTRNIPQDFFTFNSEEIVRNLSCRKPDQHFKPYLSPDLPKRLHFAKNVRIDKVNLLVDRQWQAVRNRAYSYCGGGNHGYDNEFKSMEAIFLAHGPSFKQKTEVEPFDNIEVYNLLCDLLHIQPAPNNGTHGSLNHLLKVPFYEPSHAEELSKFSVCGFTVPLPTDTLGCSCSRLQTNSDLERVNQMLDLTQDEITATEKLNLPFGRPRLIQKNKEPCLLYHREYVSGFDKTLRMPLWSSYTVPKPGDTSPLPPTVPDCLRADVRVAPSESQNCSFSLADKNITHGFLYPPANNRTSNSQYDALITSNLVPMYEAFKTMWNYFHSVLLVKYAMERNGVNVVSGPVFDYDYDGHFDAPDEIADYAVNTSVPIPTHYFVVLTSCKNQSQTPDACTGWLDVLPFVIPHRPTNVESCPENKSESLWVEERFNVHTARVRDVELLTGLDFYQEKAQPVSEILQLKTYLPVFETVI
# Experimental: (§1) Enzymic hydrolysis of 4-nitrophenyl esters is quantitated spectrophotometrically by the appearance of the 4-nitrophenolate ion at 400 nm (ε=18,320 M^-^1 cm^-1, pK 7.15) (see Kezdy, F. J. and Bender, M. L., 1962, Biochemistry, Volume 1, page 1097), either continuously above pH 7.0 or discontinuously by raising the assay mixture to pH 9 and inactivating the enzyme by the addition of two volumes of 1 M NaHCO3, 10 mM Na3 PO4, 10 mM Na2 EDTA. Standard assay conditions are 1 mM 4-nitrophenyl phenylphosphonate, 0.1 M Tris, pH 8.0, 30° C.
# ^a Production of 4-nitrophenol was measured continuously at 400 nm in […]
# [2] = target: T2, Type I phosphodiesterase, Bovine Intestine (Bos taurus, UniProt P15396); test: Activity of Type I phosphodiesterase, bovine intestine (Table VII); assay type: biochemical; conditions: 1 mM 4-nitrophenyl ester of the named compound
# T2 construct: from tissue; host or cells: bovine intestine
# T2 sequence (P15396 1-874): T1 sequence (P15396 1-874)
# Experimental: as §1
# (§2) Table VII is a comparison of Type I and Type II Phosphodiesterase as follows:
# (§3) Substrates were 1 mM solutions of the 4-nitrophenyl esters of the above
# [3] = test system: Type I phosphodiesterase, Snake Venon; test: Activity of Type I phosphodiesterase, snake venom (Table VII); assay type: biochemical; conditions: 1 mM 4-nitrophenyl ester of the named compound
# Experimental: as §1, §2, §3
# [4] = test system: Type II phosphodiesterase, Bovine spleen; test: Activity of Type II phosphodiesterase, bovine spleen (Table VII); assay type: biochemical; conditions: 1 mM 4-nitrophenyl ester of the named compound
# Experimental: as §1, §2, §3
# [5] = Stability and water solubility of phosphonate monoesters
SMILES,Vmax [1] [μmoles min^-^1 mg^-^1],Activity [2],Activity [3] [nmoles min^-^1 mg^-^1],Activity [4] [nmoles min^-^1 mg^-^1],"stability of solutions of the ammonium salt ([5]; concentrations to 0.1 M, 0°-4° C.)",stability as the dry ammonium salt ([5]; dry ammonium salt),stability in solution compared with 4-nitrophenyl phosphate ([5]; in solution)
Cc1cn([C@H]2C[C@H](OP(=O)(O)Oc3ccc([N+](=O)[O-])cc3)[C@@H](CO)O2)c(=O)[nH]c1=O [4-nitrophenyl 3'-TMP],1,569 nmoles min^-^1 mg^-^1,1.9,168,–,–,–
Cc1cn([C@H]2C[C@H](O)[C@@H](COP(=O)(O)Oc3ccc([N+](=O)[O-])cc3)O2)c(=O)[nH]c1=O [4-nitrophenyl 5'-TMP],–,"65,700 nmoles min^-^1 mg^-^1",4570,6.9,–,–,–
O=[N+]([O-])c1ccc(OP(=O)(O)c2ccccc2)cc1 [4-nitrophenyl phenylphosphonate],–,–,–,–,stable in concentrations to 0.1 M for several weeks at 0°-4 °C,stable indefinitely as the dry ammonium salt,much more stable in solution than is 4-nitrophenyl phosphate
